The conditions of series [1]: stored at ambient conditions; cited from earlier work.
For series [2] the following is noted: saturated solution in deionized water; cited from earlier work.
Series [3] relates to C. auris blood-borne pathogens. In words: treating C. auris blood-borne pathogens (FIG. 2). On the set-up: species or system Candida auris. The note with it: blood-borne infection of C. auris. An excerpt:
FIG. 2 is a table showing the effectiveness of treating a blood-borne infection of C. auris using taurolidine and/or taurolidine derivatives.

The conditions of series [4]: cited from earlier work.
A further series concerns Microbes. The note with it: microbes killed and toxins inactivated; cited from earlier work.
For series [5] the following is noted: cited from earlier work. This is another data set of the same source.
For series [6] the following is noted: water buffered at pH 7.2; cited from earlier work.

Molecules are shown by their SMILES.

As to `O=S1(=O)CCN(CN2CCS(=O)(=O)NC2)CN1` [taurolidine, 4,4′-methylene-bis(tetrahydro-1,2,4-thiadiazine)-1,1,1′,1′,-tetraoxide], in series [1], the “stability in the solid state” value is given as “acceptable stability”. Further, the “pH of saturated solution” value in series [2] is on record as 7.4. Moreover, in series [3], the “effect on C. auris blood-borne pathogens” value is “neutralize C. auris blood-borne pathogens”. Also, in series [4] (cumulative doses), the “cumulative dose shown safe and well tolerated” value is given as over 300 g. The “systemic dose shown safe and well tolerated” value in series [4] (systemic doses) is “exceeding 40 g/day”. In addition, the “destruction time in vitro” value in the series on Microbes is listed as “approximately 30 minutes”. In series [5] (CHCl3), the “solubility in CHCl3” value is “insoluble”. For the same compound, the “solubility in Dilute HCl” value in series [5] (Dilute HCl) was “soluble”. The “solubility in Dilute NaOH” value in series [5] (Dilute NaOH) is “soluble”. The “solubility in EtOH” value in series [5] (EtOH) is given as “sparingly soluble”. In addition, in series [5] (Water, at 20 degrees C.), the “solubility in Water” value is 1%. Moreover, the “apparent partition coefficient between octanol and water” value in series [6] was “approximately 0.13”.

(Values after patent US12016865B2, “Methods and pharmaceutical compositions for treating candida auris in blood” (Cormedix Inc., priority 2017, dated 2024).)
